From US10920506B2, “Methods for wellbore milling operations” (STEP ENERGY SERVICES LTD., priority 2018, dated 2021)

Key:
[1] = IBDU dissolution time with citric acid accelerator (Accelerator HT); format: physicochemical; settings: 2 bag pill, 45 kg/m3 IBDU in water or brine
Excerpt: (§1) Operations: • When milling in an underpressured well (i.e. hydrostatic pressure is greater than bottom hole pressure), or when there are indications of possible or actual lost circulation. • Add two bags of 100 Mesh IBDU such as STEPvert LT™ available from STEP Energy Services Ltd. to fluid in a displacement tank (45 kg/m^3), engage agitation paddle to maximum RPM (if paddle is not spinning fast enough to mix fluid, increase paddle speed) to ensure mixing. Continue mixing or, as noted above, displace while IBDU is added. • To avoid the IBDU settling out prior to arriving downhole, adjust the fluid if necessary to increase the carrying capacity of the fluid such that solid IBDU is able to remain suspended for the period of time it takes to get downhole. This may be achieved by pump rate and/or addition of viscosifiers. Thus, to better suspend solids: • A gelling agent is added: For example liquid gel hydroxyethyl cellulose 5 L/m^3 (2 kg/m^3 if dry gel) is added to the displacement tank with a target hydration time of 3 minutes; and/or • Slowly pour IBDU into the mixing tub while displacing to ensure no product settles out. • Add a degradation accelerator if needed. Consider Table 1 where IBDU solubility is summarized with and without a citric acid accelerator based on 45 kg/m3 loading of IBDU in water or brine:
• Generally if the formation temperature is less than 90° C., use a degradation accelerator, such as a resin coated citric acid such as Accelerator HT™ available from STEP Energy Services Ltd. The citric acid reduces pH in order to reduce degradation time of the IBDU. The resin coating ensures that the citric acid substantially will not begin to act until it reaches formation temperature. The resin breaks down to expose the acid and the acid then reduces pH and expedites degradation. • The pill of the IBDU, possibly including degradation accelerator, is launched. If a twin pump is employed, pump only through one fluid end and isolate the idle side. This ensures diverter only enters one side of plumbing. This is an operational efficiency, where only one fluid end is exposed to diverter in case it collects in large quantities and holds a valve and seat open. By always keeping one side “clean” (no solids) operational risks are mitigated. • Maintain a minimum rate of at least about 0.2 m^3/min or possibly about 0.4 m^3/min through the single fluid end (higher rate is better to aid in carrying solids). If fluid is comingled with gas such as nitrogen, lower rates may be used. […] This ensures the fluid end has been properly flushed. • Track volume from when pill enters the coil to when it is expected to reach open formation. Record the time that each pill reaches formation/exits coil BHA on treatment report (include surface iron in volume calculation). In case a large pressure event occurs when the pill exits the downhole pump, only one pill is to be inside coil at any given time.

[2] = IBDU solubility without accelerator, 2 bag STEPvert LT diversion pill in water or brine; format: physicochemical; settings: 45 kg/m3 loading of IBDU in water or brine
Excerpt: as §1, with “brine: […]” for “brine:”

[3] = 50° C., Accelerator HT Loading 5 kg
[4] = 60° C., Accelerator HT Loading 4 kg
[5] = 70° C., Accelerator HT Loading 2 kg
[6] = 80° C., Accelerator HT Loading 1 kg
[7] = 90° C., Accelerator HT Loading 0 kg

CC(C)C(NC(N)=O)NC(N)=O [STEPvert LT, isobutylidene diurea]
50% Dissolution Time [1, 3]: 1.5 days | 100% Dissolution Time [1, 3]: 5 days | 50% Dissolution Time [1, 4]: 1 days | 100% Dissolution Time [1, 4]: 3 days | 50% Dissolution Time [1, 5]: 1 days | 100% Dissolution Time [1, 5]: 2 days | 50% Dissolution Time [1, 6]: 1 days | 100% Dissolution Time [1, 6]: 2 days | 50% Dissolution Time [1, 7]: 0.33 days | 100% Dissolution Time [1, 7]: 1 days | No Accelerator Solubility, % 24 Hours ([2]; 50° C.): 14% | No Accelerator Solubility, % 48 Hours ([2]; 50° C.): 20% | No Accelerator Solubility, % 96 Hours ([2]; 50° C.): 32% | No Accelerator Solubility, % 24 Hours ([2]; 60° C.): 18% | No Accelerator Solubility, % 48 Hours ([2]; 60° C.): 24% | No Accelerator Solubility, % 96 Hours ([2]; 60° C.): 35% | No Accelerator Solubility, % 24 Hours ([2]; 70° C.): 32% | No Accelerator Solubility, % 48 Hours ([2]; 70° C.): 35% | No Accelerator Solubility, % 96 Hours ([2]; 70° C.): 51% | No Accelerator Solubility, % 24 Hours ([2]; 80° C.): 51% | No Accelerator Solubility, % 48 Hours ([2]; 80° C.): 96% | No Accelerator Solubility, % 96 Hours ([2]; 80° C.): 98% | No Accelerator Solubility, % 24 Hours ([2]; 90° C.): 89% | No Accelerator Solubility, % 48 Hours ([2]; 90° C.): 96% | No Accelerator Solubility, % 96 Hours ([2]; 90° C.): 98%
